Consider 21 molecules from patent publication US8163768B2, “1,4-dihydropyridine-fused heterocycles, process for preparing the same, use and compositions containing them” (Aventis Pharma S.A.., priority 2005, dated 2012).

The target in assay [1] is T1, Aurora1 (Aurora-B) (Homo sapiens, UniProt Q96GD4).
T1 construct: Aurora-B: the full length protein (His tagged in N-terminal) has been co expressed in SF9 cells; poly-histidine (N); made in house; host or cells: SF9 cells
Nature of the assay: Aurora 1 (Aurora B) kinase radioactivity scintillation assay using nickel chelate Flash plates. The assay is classed as biochemical. The following applies: 10 nM Aurora-B (co expressed with C3 fragment of INCEP), 500 nM NuMA substrate, 1 μM ATP with [33P] ATP, 5 mM MgCl2, 30 minutes, 37° C. Here is the method:
(§1) Aurora 1 and 2 (Respectively. Aurora B and A)
(§2) The inhibitory effect of compounds with respect to the Aurora 1 and 2 kinases is determined with a radioactivity scintillation assay using nickel chelate.
(§3) The kinase activity of Aurora is measured by the phosphorylation of NuMA-histidine substrate in the presence of radiolabelled ATP ([^33P] ATP) using 96 well Flash plates where the nickel-chelate is linked to the surface of the microplate. The amount of ^33P incorporated to the substrate NuMA is proportional to the aurora activity.
(§4) The Flash plates used are nickel-chelate 96 well plates (Perkin Elmer, model SMP107).
(§5) The products to be evaluated are incubated in a 100 μl reaction volume per well in the presence of 10 nM of Aurora-B or Aurora-A, 500 nM of NuMA substrate in the following buffer: 50 mM of NaCl, 5 mM MgCl2, (Aurora-B) or 10 mM MgCl2 (Aurora-A) and 1 mM of DTT at 37° C.
(§6) 80 μL of enzyme/substrate incubation buffer is distributed in each well, followed by 10 μL of solution of compound to be measured with various concentrations. The reaction is started by adding 1 μM of ATP (final concentration) containing 0.2 μCi of [^33P] ATP (10 μL). After 30 minutes of incubation the reaction is stopped by removal of the reaction mixture and each well is washed twice with 300 μl of buffer Tris/HCl. The radioactivity is measured in each well using a Packard Top count scintillation counter instrument.
(§7) The enzymatic activity is expressed as counts per minute obtained in 30 minutes after subtraction of the background noise (reaction medium without enzyme). The measurement is expressed as percentage of inhibition of Aurora activity versus the control. To generate IC50 values, compounds of the invention are tested at different concentration and the percentage of inhibition are plotted as function of compound concentration, IC50s are calculated using the Xlfit 4 curve fitting software.

In assay [2] the target is T2, Aurora2 (Aurora-A) (Homo sapiens, UniProt O14965).
T2 construct: Aurora-A: the full length recombinant protein including an N-terminal poly-histidine tail has been expressed in E. coli; poly-histidine (N); made in house; host or cells: E. coli
T2 sequence (O14965 1-403): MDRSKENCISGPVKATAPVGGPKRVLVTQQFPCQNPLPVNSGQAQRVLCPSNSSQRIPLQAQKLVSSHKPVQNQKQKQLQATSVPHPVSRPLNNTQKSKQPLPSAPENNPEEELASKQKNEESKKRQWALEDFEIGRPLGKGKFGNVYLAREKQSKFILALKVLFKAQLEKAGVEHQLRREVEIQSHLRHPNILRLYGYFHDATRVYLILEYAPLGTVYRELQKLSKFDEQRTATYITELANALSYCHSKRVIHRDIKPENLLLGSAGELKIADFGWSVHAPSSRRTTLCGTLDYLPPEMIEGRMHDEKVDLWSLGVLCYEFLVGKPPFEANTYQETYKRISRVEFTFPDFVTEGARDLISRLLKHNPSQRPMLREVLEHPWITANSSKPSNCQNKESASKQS
In words: Aurora 2 (Aurora A) kinase radioactivity scintillation assay using nickel chelate Flash plates. The assay is classed as biochemical. The following applies: 10 nM Aurora-A, 500 nM NuMA substrate, 1 μM ATP with [33P] ATP, 10 mM MgCl2, 30 minutes, 37° C. Here is the method: as §1, §2, §3, §4, §5, §6, §7

T1 sequence (Q96GD4 whole entry, species assumed): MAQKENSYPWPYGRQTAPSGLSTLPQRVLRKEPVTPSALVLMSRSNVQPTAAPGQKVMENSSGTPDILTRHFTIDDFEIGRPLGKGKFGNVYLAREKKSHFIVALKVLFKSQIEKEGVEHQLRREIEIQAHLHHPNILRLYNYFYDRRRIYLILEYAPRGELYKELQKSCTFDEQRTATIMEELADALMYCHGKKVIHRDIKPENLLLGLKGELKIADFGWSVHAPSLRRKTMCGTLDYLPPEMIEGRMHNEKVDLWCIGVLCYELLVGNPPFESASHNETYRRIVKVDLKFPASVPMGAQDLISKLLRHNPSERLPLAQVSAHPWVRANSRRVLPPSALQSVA
T1 sequence (Q9NQS7 821-918 partner limits assumed, species assumed): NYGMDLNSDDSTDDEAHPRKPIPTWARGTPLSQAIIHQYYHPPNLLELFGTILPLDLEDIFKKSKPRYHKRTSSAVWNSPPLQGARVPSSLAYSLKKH

Usually IC50 stands for the concentration at which inhibition is half-maximal. In the case of `O=C1CCCC2=C1[C@H](c1ccc(Sc3nc4ccccc4[nH]3)o1)c1c[nH]nc1N2` (single isomer, unassigned) [120a (+), 4-[5-(1H-Benzimidazol-2-ylsulfanyl)-furan-2-yl]-1,4,6,7,8,9-hexahydro-pyrazolo[3,4-b]quinolin-5-one], in assay [1], the IC50 turned out to be 4 nM.

For the molecule `O=C1CCCC2=C1[C@H](c1ccc(Sc3nc4ccccc4[nH]3)o1)c1c[nH]nc1N2` (single isomer, unassigned) [120b (−), 4-[5-(1H-Benzimidazol-2-ylsulfanyl)-furan-2-yl]-1,4,6,7,8,9-hexahydro-pyrazolo[3,4-b]quinolin-5-one], the half-inhibitory concentration (IC50) in assay [1] stood at 75 nM.

Consider `O=C1CCCC2=C1C(c1ccc(Sc3nc4ccccc4[nH]3)o1)c1cn[nH]c1N2` (stereo not shown) [Example 3, 4-[5-(1H-Benzimidazol-2-ylsulfanyl)-furan-2-yl]-1,4,6,7,8,9-hexahydro-pyrazolo[3,4-b]quinolin-5-one], for which the IC50 in assay [1] is 8 nM.

In the case of `CC1(C)CC(=O)C2=C(C1)Nc1n[nH]cc1C2c1ccc(Sc2nc3ccccc3[nH]2)o1` (stereo not shown) [Example 4, 4-[5-(1H-Benzimidazol-2-ylsulfanyl)-furan-2-yl]-7,7-dimethyl-2,4,6,7,8,9-hexahydro-pyrazolo[3,4-b]quinolin-5-one], the figures for the IC50 in assay [2] and in assay [1] were 15 nM and 4 nM, respectively.

In the case of `O=C1CNCC2=C1C(c1ccc(Sc3nc4ccccc4[nH]3)o1)c1c[nH]nc1N2` (stereo not shown) [Example 20, 4-[5-(1H-Benzimidazol-2-ylsulfanyl)-furan-2-yl]-2,4,6,7,8,9-hexahydro-pyrazolo[3,4-b]-1,7-naphthyridin-5-one; compound with trifluoro-acetic acid], the IC50 in assay [1] is 83 nM.

As for `CC1CC(=O)C2=C(C1)Nc1n[nH]cc1C2c1ccc(Sc2nc3ccccc3[nH]2)o1` (stereo not shown) [Example 28, 4-[5-(1H-Benzimidazol-2-ylsulfanyl)-furan-2-yl]-7-methyl-2,4,6,7,8,9-hexahydro-pyrazolo[3,4-b]quinolin-5-one; compound with trifluoro-acetic acid], the IC50 in assay [2] came out at 17 nM; in assay [1], 5 nM.

Take `O=C1CC(c2ccccc2)CC2=C1C(c1ccc(Sc3nc4ccccc4[nH]3)o1)c1c[nH]nc1N2` (stereo not shown) [Example 29, 4-[5-(1H-Benzimidazol-2-ylsulfanyl)-furan-2-yl]-7-phenyl-2,4,6,7,8,9-hexahydro-pyrazolo[3,4-b]quinolin-5-one; compound with trifluoro-acetic acid]: the IC50 in assay [2] was determined as 100 nM; in assay [1], 36 nM.

For `CC1(C)CCC2=C(C1=O)C(c1ccc(Sc3nc4ccccc4[nH]3)o1)c1c[nH]nc1N2` (stereo not shown) [Example 30, 4-[5-(1H-Benzimidazol-2-ylsulfanyl)-furan-2-yl]-6,6-dimethyl-2,4,6,7,8,9-hexahydro-pyrazolo[3,4-b]quinolin-5-one; compound with trifluoro-acetic acid], the IC50 in assay [2] worked out at 20 nM; in assay [1], 5 nM.

Take `CC(C)C1CC(=O)C2=C(C1)Nc1n[nH]cc1C2c1ccc(Sc2nc3ccccc3[nH]2)o1` (stereo not shown) [Example 31, 4-[5-(1H-Benzimidazol-2-ylsulfanyl)-furan-2-yl]-7-isopropyl-2,4,6,7,8,9-hexahydro-pyrazolo[3,4-b]quinolin-5-one; compound with trifluoro-acetic acid]: the IC50 in assay [2] is 14 nM; in assay [1] it was 4 nM.

On to `COc1ccc(C2CC(=O)C3=C(C2)Nc2n[nH]cc2C3c2ccc(Sc3nc4ccccc4[nH]3)o2)cc1` (stereo not shown) [Example 32, 4-[5-(1H-Benzimidazol-2-ylsulfanyl)-furan-2-yl]-7-(4-methoxy-phenyl)-2,4,6,7,8,9-hexahydro-pyrazolo[3,4-b]quinolin-5-one; compound with trifluoro-acetic acid], for which the half-maximal inhibitory concentration (IC50) in assay [2] turned out to be 125 nM; in assay [1] it was 50 nM.

On to `O=C1CC(c2ccc(Cl)cc2Cl)CC2=C1C(c1ccc(Sc3nc4ccccc4[nH]3)o1)c1c[nH]nc1N2` (stereo not shown) [Example 33, 4-[5-(1H-Benzimidazol-2-ylsulfanyl)-furan-2-yl]-7-(2,4-dichloro-phenyl)-2,4,6,7,8,9-hexahydro-pyrazolo[3,4-b]quinolin-5-one; compound with trifluoro-acetic acid], for which the results for the concentration for half-maximal inhibition (IC50) in assay [2] and in assay [1] were 179 nM and 32 nM, respectively.

In the case of `O=C1CCCC2=C1C(c1ccc(Sc3ccccn3)o1)c1c[nH]nc1N2` (stereo not shown) [Example 40], the IC50 in assay [1] came to 3400 nM.

Consider `Cn1c(Sc2ccc(C3C4=C(CNCC4=O)Nc4n[nH]cc43)o2)nc2ccccc21` (stereo not shown) [Example 83, 4-[5-(1-Methyl-1H-benzimidazol-2-ylsulfanyl)-furan-2-yl]-2,4,6,7,8,9-hexahydro-pyrazolo[3,4-b]-1,7-naphthyridin-5-one; compound with trifluoro-acetic acid], for which, in assay [1], the IC50 is 5020 nM.

`CCOC(=O)c1[nH]cc2c1NC1=C(C(=O)CNC1)C2c1ccc(Sc2nc3ccccc3[nH]2)o1` (stereo not shown) [Example 104, 9-[5-(1H-Benzimidazol-2-ylsulfanyl)-furan-2-yl]-8-oxo-4,5,6,7,8,9-hexahydro-2H-pyrrolo[3,4-b]-1,7-naphthyridine-3-carboxylic acid ethyl ester; compound with trifluoro-acetic acid]: the IC50 in assay [1] amounted to 7 nM.

As to `CCOC(=O)c1[nH]cc2c1NC1=C(C(=O)CC(C)(C)C1)C2c1ccc(Sc2nc3ccccc3[nH]2)o1` (stereo not shown) [Example 106, 9-[5-(1H-Benzimidazol-2-ylsulfanyl)-furan-2-yl]-6,6-dimethyl-8-oxo-4,5,6,7,8,9-hexahydro-2H-pyrrolo[3,4-b]quinoline-3-carboxylic acid ethyl ester], the IC50 in assay [1] is 31 nM.

`CCOC(=O)c1[nH]cc2c1NC1=C(C(=O)CCC1)C2c1ccc(Sc2nc3cc(F)c(F)cc3[nH]2)o1` (stereo not shown) [Example 114, 9-[5-(5,6-Difluoro-1H-benzimidazol-2-ylsulfanyl)-furan-2-yl]-8-oxo-4,5,6,7,8,9-hexahydro-2H-pyrrolo[3,4-b]quinoline-3-carboxylic acid ethyl ester]: the IC50 in assay [1] is 6 nM.

With `CCOC(=O)c1[nH]cc2c1NC1=C(C(=O)CCC1)C2c1ccc(Sc2nc3ccc(F)c(F)c3[nH]2)o1` (stereo not shown) [Example 121, 9-[5-(6,7-Difluoro-1H-benzimidazol-2-ylsulfanyl)-furan-2-yl]-8-oxo-4,5,6,7,8,9-hexahydro-2H-pyrrolo[3,4-b]quinoline-3-carboxylic acid ethyl ester], in assay [1], the IC50 is 7 nM.

As to `CCOC(=O)c1[nH]cc2c1NC1=C(C(=O)CCC1)C2c1ccc(Sc2nc3c(F)c(F)c(F)cc3[nH]2)o1` (stereo not shown) [Example 122, 8-Oxo-9-[5-(4,5,6-trifluoro-1H-benzimidazol-2-ylsulfanyl)-furan-2-yl]-4,5,6,7,8,9-hexahydro-2H-pyrrolo[3,4-b]quinoline-3-carboxylic acid ethyl ester], in assay [1], the IC50 worked out at 7 nM.

In the case of `CCOC(=O)c1[nH]cc2c1NC1=C(C(=O)CCC1)C2c1ccc(Sc2nc3cc(Cl)ccc3[nH]2)o1` (stereo not shown) [Example 129, 9-[5-(5-Chloro-1H-benzimidazol-2-ylsulfanyl)-furan-2-yl]-8-oxo-4,5,6,7,8,9-hexahydro-2H-pyrrolo[3,4-b]quinoline-3-carboxylic acid ethyl ester], the IC50 in assay [1] was 10 nM.

Regarding `CCOC(=O)c1[nH]cc2c1NC1=C(C(=O)CCC1)C2c1ccc(Sc2nc3c(F)cc(F)cc3[nH]2)o1` (stereo not shown) [Example 142, 9-[5-(4,6-Difluoro-1H-benzimidazol-2-ylsulfanyl)-furan-2-yl]-8-oxo-4,5,6,7,8,9-hexahydro-2H-pyrrolo[3,4-b]quinoline-3-carboxylic acid ethyl ester], the IC50 in assay [1] amounted to 3 nM.

On to `CCOC(=O)c1[nH]cc2c1NC1=C(C(=O)CCC1)C2c1ccc(Sc2nc3cc(F)ccc3[nH]2)o1` (stereo not shown) [Example 148, 9-[5-(5-Fluoro-1H-benzimidazol-2-ylsulfanyl)-furan-2-yl]-8-oxo-4,5,6,7,8,9-hexahydro-2H-pyrrolo[3,4-b]quinoline-3-carboxylic acid ethyl ester], for which the IC50 in assay [1] is 11 nM.
